From patent publication US4234579A, “Penicillanic acid 1,1-dioxides as β-lactamase inhibitors” (priority 1979, dated 1980)
Like-named read-outs stand apart in the source and are kept apart here. Blank lines part the entries; values can stand above or below the compound they belong to.

How the values were obtained:
Test in all cases: Mode MIC of antibiotic and PA 1,1-Dioxide alone and in combination
Format in all cases: cell-based
Staphylococcus aureus = conditions: for MIC: Staphylococcus aureus, 18 h, read-out: Mode MIC alone
From the text: (§1) As indicated hereinbefore, the compounds of formula I, wherein R^1 is hydrogen or an ester-forming residue readily hydrolyzable in vivo, are antibacterial agents of medium potency. […] The procedure which is followed is the one recommended by the International Collaborative Study on Antibiotic Sensitivity Testing (Ericcson and Sherris, Acta. Pathologica et Microbiologia Scandinav, Supp. 217, Section B: 64-68 [1971]), and employs brain heart infusion (BHI) agar and the inocula replicating device. Overnight growth tubes are diluted 100 fold for use as the standard inoculum (20,000-10,000 cells in approximately 0.002 ml. are placed on the agar surface; 20 ml. of BHI agar/dish). Twelve 2 fold dilutions of the test compound are employed, with initial concentration of the test drug being 200 mcg./ml. Single colonies are disregarded when reading plates after 18 hrs. at 37° C. The susceptibility (MIC) of the test organism is accepted as the lowest concentration of compound capable of producing complete inhibition of growth as judged by the naked eye.
(§2) The manner in which the said compounds of the formula I increase the effectiveness of a β-lactam antibiotic can be appreciated by reference to experiments in which the MIC of a given antibiotic alone, and a compound of the formula I wherein R^1 is hydrogen, alone, are measured. These MIC's are then compared with the MIC values obtained with a combination of the given antibiotic and the compound of the formula I wherein R^1 is hydrogen. […] The MIC values of combinations are measured using the method described by Barry and Sabath in "Manual of Clinical Microbiology", edited by Lenette, Spaulding and Truant, 2nd Edition, 1974, American Society for Microbiology.
(§3) From Table II, it can be seen that against 19 ampicillin-resistant strains of Staphylococcus aureus, the mode MIC of ampicillin, and of penicillanic acid 1,1-dioxide, is 200 mcg./ml. […] The other entries in Table II show enhancement of the antibacterial effectiveness of ampicillin against 26 ampicillin resistant strains of Haemophilus influenzae, 18 ampicillin resistant strains of Klebsiella pneumoniae, and 15 strains of the anerobe Bacteroides fragilis. Tables III, IV and V show enhancement of the antibacterial potency of benzylpenicillin (penicillin G) carbenicillin (α-carboxybenzylpenicillin) and cefazolin, respectively, against strains of S. aureus, H. influenzae, K. pneumoniae and Bacteroides fragilis.

Haemophilus influenzae = conditions: for MIC: Haemophilus influenzae, 18 h, alone
From the text: as §1, §2, §3

Bacteroides fragilis = conditions: for MIC: Bacteroides fragilis, 18 h, read-out: Mode MIC alone
From the text: as §1, §2, §3

Klebsiella pneumoniae = conditions: for MIC: Klebsiella pneumoniae, 18 h, read-out: Mode MIC alone
From the text: as §1, §2, §3

MIC (Staphylococcus aureus; Table II, 19 ampicillin-resistant strains, alone): 200 µg/mL
Mode MIC's of ampicillin and PA 1,1-Dioxide in combination (Staphylococcus aureus; Table II, 19 ampicillin-resistant strains, ampicillin + PA 1,1-Dioxide in combination): 1.56 µg/mL
MIC (Haemophilus influenzae; Table II, 26 ampicillin resistant strains, read-out: Mode MIC alone): 200 µg/mL
Mode MIC's of ampicillin and PA 1,1-Dioxide in combination (Haemophilus influenzae; Table II, 26 ampicillin resistant strains, ampicillin + PA 1,1-Dioxide in combination): 0.78 µg/mL
MIC (Bacteroides fragilis; Table II, 15 strains, alone): 50 µg/mL
Mode MIC's of ampicillin and PA 1,1-Dioxide in combination (Bacteroides fragilis; Table II, 15 strains, ampicillin + PA 1,1-Dioxide in combination): 1.56 µg/mL
MIC (Klebsiella pneumoniae; Table II, 18 ampicillin resistant strains, alone): > 400 µg/mL
Mode MIC's of ampicillin and PA 1,1-Dioxide in combination (Klebsiella pneumoniae; Table II, 18 ampicillin resistant strains, ampicillin + PA 1,1-Dioxide in combination): 6.25 µg/mL
SMILES: CC1(C)S[C@@H]2[C@H](NC(=O)[C@H](N)c3ccccc3)C(=O)N2[C@H]1C(=O)O [ampicillin, reference compound]

MIC (Staphylococcus aureus; Table IV, 20 strains, alone): 12.5 µg/mL
Mode MIC's of carbenicillin and PA 1,1-Dioxide in combination (Staphylococcus aureus; Table IV, 20 strains, carbenicillin + PA 1,1-Dioxide in combination): 6.25 µg/mL
MIC (Haemophilus influenzae; Table IV, 25 strains, read-out: Mode MIC alone): 6.25 µg/mL
Mode MIC's of carbenicillin and PA 1,1-Dioxide in combination (Haemophilus influenzae; Table IV, 25 strains, carbenicillin + PA 1,1-Dioxide in combination): 0.39 µg/mL
MIC (Bacteroides fragilis; Table IV, 15 strains, alone): 50 µg/mL
Mode MIC's of carbenicillin and PA 1,1-Dioxide in combination (Bacteroides fragilis; Table IV, 15 strains, carbenicillin + PA 1,1-Dioxide in combination): 3.12 µg/mL
MIC (Klebsiella pneumoniae; Table IV, 16 strains, alone): > 400 µg/mL
Mode MIC's of carbenicillin and PA 1,1-Dioxide in combination (Klebsiella pneumoniae; Table IV, 16 strains, carbenicillin + PA 1,1-Dioxide in combination): 50 µg/mL
SMILES: CC1(C)S[C@@H]2[C@H](NC(=O)C(C(=O)O)c3ccccc3)C(=O)N2[C@H]1C(=O)O (stereo partly drawn) [carbenicillin, α-carboxybenzylpenicillin, reference compound]

SMILES: CC1(C)S[C@@H]2[C@H](NC(=O)Cc3ccccc3)C(=O)N2[C@H]1C(=O)O [penicillin G, reference compound]
MIC (Staphylococcus aureus): 200 µg/mL
Mode MIC's of penicillin G and PA 1,1-Dioxide in combination (Staphylococcus aureus; Table III, 20 strains, penicillin G + PA 1,1-Dioxide in combination): 3.12 µg/mL
MIC (Haemophilus influenzae; read-out: Mode MIC alone, Table III, 25 strains): 50 µg/mL
Mode MIC's of penicillin G and PA 1,1-Dioxide in combination (Haemophilus influenzae; Table III, 25 strains, penicillin G + PA 1,1-Dioxide in combination): 0.78 µg/mL
MIC (Bacteroides fragilis): 25 µg/mL
Mode MIC's of penicillin G and PA 1,1-Dioxide in combination (Bacteroides fragilis; Table III, 15 strains, penicillin G + PA 1,1-Dioxide in combination): 1.56 µg/mL
MIC (Klebsiella pneumoniae): 400 µg/mL
Mode MIC's of penicillin G and PA 1,1-Dioxide in combination (Klebsiella pneumoniae; Table III, 24 strains, penicillin G + PA 1,1-Dioxide in combination): 25 µg/mL
